In one test the target is human TLR8 (Homo sapiens (Human), UniProt Q9NR97). Description: TLR8 inhibition reporter assay (HEK-Blue cells, SEAP reporter, R848 stimulation).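 Note: compounds tested from 0.05 nM to 50 µM, 22 h at 37 °C, SEAP measured with HEK-Blue Detection, inhibition relative to agonist plus DMSO versus a known inhibitor.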 To be noted: read-out: TLR8 IC50, HEK-Blue cells overexpressing human TLR8, R848 15.9 μM. In general terms: Reporter assays use an easily measured gene product as a stand-in for the process of interest.
A further test addresses human TLR7 (Homo sapiens (Human), UniProt Q9NYK1). Description: TLR7 inhibition reporter assay (HEK-Blue cells, SEAP reporter, gardiquimod stimulation). The class given is cell-based. To be noted: HEK-Blue cells overexpressing human TLR7, gardiquimod 7.5 μM.
Another test concerns the target human TLR9 (Homo sapiens (Human), UniProt Q9NR96). Description: TLR9 inhibition reporter assay (HEK-Blue cells, SEAP reporter, ODN2006 stimulation).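 Note: compounds tested over 0.05 nM to 50 µM, 22 h incubation, inhibition taken as SEAP signal drop from agonist plus DMSO wells toward a known inhibitor control.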 As to conditions: read-out: TLR9 IC50, HEK-Blue cells overexpressing human TLR9, ODN2006 5 nM.

For 27 molecules, IC50 results are on record in patent US10660877B2 (BRISTOL-MYERS SQUIBB COMPANY, priority 2016, dated 2020).

Sequence of human TLR8 (Q9NR97 27-1041): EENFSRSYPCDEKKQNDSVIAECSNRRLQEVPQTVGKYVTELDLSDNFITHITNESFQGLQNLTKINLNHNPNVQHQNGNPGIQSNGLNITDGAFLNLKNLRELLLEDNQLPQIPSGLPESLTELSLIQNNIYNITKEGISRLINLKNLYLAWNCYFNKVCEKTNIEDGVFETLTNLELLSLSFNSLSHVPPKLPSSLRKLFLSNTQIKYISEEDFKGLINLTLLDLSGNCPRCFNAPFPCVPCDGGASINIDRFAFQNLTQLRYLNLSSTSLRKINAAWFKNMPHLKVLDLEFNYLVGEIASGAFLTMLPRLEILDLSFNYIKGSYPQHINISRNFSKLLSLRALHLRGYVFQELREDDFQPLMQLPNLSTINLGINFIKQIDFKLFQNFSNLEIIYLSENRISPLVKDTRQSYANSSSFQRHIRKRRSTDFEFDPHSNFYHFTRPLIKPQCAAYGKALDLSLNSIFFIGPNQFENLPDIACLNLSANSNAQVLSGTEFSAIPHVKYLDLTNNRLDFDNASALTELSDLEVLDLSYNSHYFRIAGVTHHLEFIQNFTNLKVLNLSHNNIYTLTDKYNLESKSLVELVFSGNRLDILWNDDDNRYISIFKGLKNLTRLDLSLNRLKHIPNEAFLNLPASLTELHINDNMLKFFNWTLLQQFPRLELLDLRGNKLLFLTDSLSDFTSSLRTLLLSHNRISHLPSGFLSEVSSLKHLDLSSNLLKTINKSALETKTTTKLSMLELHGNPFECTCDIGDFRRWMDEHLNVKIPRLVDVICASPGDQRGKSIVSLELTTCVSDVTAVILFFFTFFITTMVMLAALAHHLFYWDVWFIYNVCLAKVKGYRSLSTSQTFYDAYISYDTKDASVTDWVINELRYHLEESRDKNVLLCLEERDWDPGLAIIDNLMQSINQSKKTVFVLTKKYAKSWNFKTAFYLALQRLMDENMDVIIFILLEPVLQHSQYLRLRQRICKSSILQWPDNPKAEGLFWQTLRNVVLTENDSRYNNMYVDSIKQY
Sequence of human TLR9 (Q9NR96 26-1032): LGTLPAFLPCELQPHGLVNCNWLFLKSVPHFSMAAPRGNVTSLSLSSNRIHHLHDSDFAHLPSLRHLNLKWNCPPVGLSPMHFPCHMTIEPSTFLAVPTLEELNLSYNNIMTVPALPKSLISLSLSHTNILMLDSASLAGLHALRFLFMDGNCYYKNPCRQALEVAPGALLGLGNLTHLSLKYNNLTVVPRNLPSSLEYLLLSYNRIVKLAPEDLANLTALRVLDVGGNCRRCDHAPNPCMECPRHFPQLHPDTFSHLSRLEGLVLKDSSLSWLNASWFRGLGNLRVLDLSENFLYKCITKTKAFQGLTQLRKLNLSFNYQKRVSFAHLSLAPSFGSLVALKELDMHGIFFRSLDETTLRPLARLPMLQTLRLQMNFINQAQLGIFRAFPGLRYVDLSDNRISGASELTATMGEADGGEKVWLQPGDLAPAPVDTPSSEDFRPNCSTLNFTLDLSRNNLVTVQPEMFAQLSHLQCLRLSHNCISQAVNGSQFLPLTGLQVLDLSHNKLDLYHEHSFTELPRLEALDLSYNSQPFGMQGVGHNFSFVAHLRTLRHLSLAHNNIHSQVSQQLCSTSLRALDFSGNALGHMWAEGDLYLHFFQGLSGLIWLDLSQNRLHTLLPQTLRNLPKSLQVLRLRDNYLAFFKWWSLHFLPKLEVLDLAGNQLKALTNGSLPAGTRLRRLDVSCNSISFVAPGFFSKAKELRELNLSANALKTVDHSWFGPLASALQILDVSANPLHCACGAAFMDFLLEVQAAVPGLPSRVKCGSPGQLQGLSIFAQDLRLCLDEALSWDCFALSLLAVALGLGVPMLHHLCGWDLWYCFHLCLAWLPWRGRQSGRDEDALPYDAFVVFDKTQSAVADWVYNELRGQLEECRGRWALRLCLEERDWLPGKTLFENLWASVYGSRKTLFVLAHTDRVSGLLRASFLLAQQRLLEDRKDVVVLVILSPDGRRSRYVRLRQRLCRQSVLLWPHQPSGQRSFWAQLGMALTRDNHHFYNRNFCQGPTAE
Sequence of human TLR7 (Q9NYK1 27-1049): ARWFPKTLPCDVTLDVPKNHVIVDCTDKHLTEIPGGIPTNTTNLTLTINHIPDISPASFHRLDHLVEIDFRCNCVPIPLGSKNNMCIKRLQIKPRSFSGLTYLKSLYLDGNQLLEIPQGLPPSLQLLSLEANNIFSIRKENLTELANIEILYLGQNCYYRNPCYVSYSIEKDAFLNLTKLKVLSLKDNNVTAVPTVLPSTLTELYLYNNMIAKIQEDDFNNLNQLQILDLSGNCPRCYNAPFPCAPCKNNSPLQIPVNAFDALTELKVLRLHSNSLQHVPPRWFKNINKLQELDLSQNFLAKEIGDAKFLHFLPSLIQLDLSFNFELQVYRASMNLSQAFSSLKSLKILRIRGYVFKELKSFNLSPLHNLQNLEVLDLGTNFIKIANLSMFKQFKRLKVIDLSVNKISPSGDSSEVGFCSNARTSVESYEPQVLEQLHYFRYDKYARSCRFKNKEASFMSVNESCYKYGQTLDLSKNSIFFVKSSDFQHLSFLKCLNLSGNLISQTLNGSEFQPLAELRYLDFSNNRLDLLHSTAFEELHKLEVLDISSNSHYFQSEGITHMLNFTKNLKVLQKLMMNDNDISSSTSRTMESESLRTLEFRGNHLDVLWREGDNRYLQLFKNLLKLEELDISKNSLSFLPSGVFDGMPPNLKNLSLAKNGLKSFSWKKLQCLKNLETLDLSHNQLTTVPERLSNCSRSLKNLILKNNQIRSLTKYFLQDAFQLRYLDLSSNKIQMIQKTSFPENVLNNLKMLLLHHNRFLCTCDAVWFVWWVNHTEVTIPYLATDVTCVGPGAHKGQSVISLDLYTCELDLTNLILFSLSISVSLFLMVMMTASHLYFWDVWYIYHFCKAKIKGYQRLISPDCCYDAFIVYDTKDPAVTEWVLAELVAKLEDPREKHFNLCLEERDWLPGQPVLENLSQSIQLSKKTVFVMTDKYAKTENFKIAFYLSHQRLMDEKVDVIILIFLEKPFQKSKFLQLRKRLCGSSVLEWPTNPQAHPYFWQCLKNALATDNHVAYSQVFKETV
Method for human TLR7: TLR7/8/9 Inhibition Reporter Assays
Briefly, cells are seeded into Greiner 384 well plates (15000 cells per well for TLR7, 20,000 for TLR8 and 25,000 for TLR9) and then treated with test compounds in DMSO to yield a final dose response concentration range of 0.05 nM-50 μM. […] After a 22 hour incubation at 37° C., 5% CO2, SEAP levels are determined with the addition of HEK-Blue™ Detection reagent (Invivogen), a cell culture medium that allows for detection of SEAP, according to manufacturer's specifications. The percent inhibition is determined as the % reduction in the HEK-Blue signal present in wells treated with agonist plus DMSO alone compared to wells treated with a known inhibitor.

As a reminder, the IC50 is the point on the concentration scale where inhibition reaches its midpoint. As to `CCc1c(-c2ccnc(OC(C)C)c2)[nH]c2ccc(C3CCN(C4CCN(CC(C)C)CC4)CC3)cc12` [Example 769, 3-ethyl-5-(1′-isobutyl-[1,4′-bipiperidin]-4-yl)-2-(2-isopropoxypyridin-4-yl)-1H-indole], the IC50 on human TLR8 came out at 1050 nM; at human TLR7, 5380 nM; at human TLR9, 1500 nM.
In the same order, the values of `CCc1c(-c2ccnc(OCCN(C)C)c2)[nH]c2ccc(C3CCN(C4CCN(CC(C)C)CC4)CC3)cc12` [Example 770, 2-((4-(3-ethyl-5-(1′-isobutyl-[1,4′-bipiperidin]-4-yl)-1H-indol-2-yl)pyridin-2-yl)oxy)-N,N-dimethylethan-1-amine] are over 50000 nM, 6730 nM and 310 nM.
For `CCc1c(-c2ccnc(N)c2)[nH]c2ccc(C3CCN(C4CCN(CC(C)C)CC4)CC3)cc12` [Example 773, 4-(3-ethyl-5-(1′-isobutyl-[1,4′-bipiperidin]-4-yl)-1H-indol-2-yl)pyridin-2-amine], the IC50 at human TLR8 was 114 nM; against human TLR7, 613 nM; on human TLR9, 45 nM.
Regarding `CCc1c(-c2ccnc(OC)c2)[nH]c2ccc(C3CCN(CCNC)CC3)cc12` [Example 778, 2-(4-(3-ethyl-2-(2-methoxypyridin-4-yl)-1H-indol-5-yl)piperidin-1-yl)-N-methylethan-1-amine], the IC50 worked out at 100 nM at human TLR8, 330 nM against human TLR7 and 1940 nM on human TLR9.
Regarding `CCc1c(-c2ccncc2)[nH]c2ccc(C3CCN(C4CCN(CC(C)C)CC4)CC3)cc12` [Example 779, 3-ethyl-5-(1′-isobutyl-[1,4′-bipiperidin]-4-yl)-2-(pyridin-4-yl)-1H-indole], the IC50 on human TLR8 turned out to be 86.6 nM; on human TLR7, 2110 nM; on human TLR9, 159 nM.
With `CCc1c(-c2ccnc(OC)c2)[nH]c2ccc(C3CCN(C4CCN(CC(C)C)CC4)CC3)cc12` [Example 780, 3-ethyl-5-(1′-isobutyl-[1,4′-bipiperidin]-4-yl)-2-(2-methoxypyridin-4-yl)-1H-indole], the IC50 on human TLR8 was found to be 81.1 nM; on human TLR7, 502 nM; at human TLR9 it was 412 nM.
In the same order, the values of `COc1cc(-c2[nH]c3ccc(C4CCN(C5CCN(CC(C)C)CC5)CC4)cc3c2C)ccn1` [Example 781, 5-(1′-isobutyl-[1,4′-bipiperidin]-4-yl)-2-(2-methoxypyridin-4-yl)-3-methyl-1H-indole] are 316 nM, 577 nM and 206 nM.
In the same order, the values of `Cc1c(-c2ccncc2)[nH]c2ccc(C3CCN(C4CCN(CC(C)C)CC4)CC3)cc12` [Example 782, 5-(1′-isobutyl-[1,4′-bipiperidin]-4-yl)-3-methyl-2-(pyridin-4-yl)-1H-indole] are 383 nM, 1310 nM and 124 nM.
In the case of `CCc1c(-c2ccnc(OC)c2)[nH]c2ccc(C3CCN(C4CCN(C5CCCC5)CC4)CC3)cc12` [Example 785, 5-(1′-cyclopentyl-[1,4′-bipiperidin]-4-yl)-3-ethyl-2-(2-methoxypyridin-4-yl)-1H-indole], the IC50 on human TLR8 came to 117 nM; against human TLR7, 790 nM; on human TLR9, 282 nM.
`CCc1c(-c2ccnc(OC)c2)[nH]c2ccc(C3CCN(C4CCN(C(C)C)CC4)CC3)cc12` [Example 786, 3-ethyl-5-(1′-isopropyl-[1,4′-bipiperidin]-4-yl)-2-(2-methoxypyridin-4-yl)-1H-indole]: the IC50 on human TLR8 worked out at 50.4 nM; on human TLR7, 309 nM; at human TLR9, 206 nM.
In the same order, the values of `CCc1c(-c2ccnc(OC)c2)[nH]c2ccc(C3CCN(C4CCN(CC5CC5)CC4)CC3)cc12` [Example 789, 5-(1′-(cyclopropylmethyl)-[1,4′-bipiperidin]-4-yl)-3-ethyl-2-(2-methoxypyridin-4-yl)-1H-indole] are 269 nM, 599 nM and 408 nM.
With `CCc1c(-c2ccnc(OC)c2)[nH]c2ccc(C3CCN(C4CCN(C)CC4)CC3)cc12` [Example 790, 3-ethyl-2-(2-methoxypyridin-4-yl)-5-(1′-methyl-[1,4′-bipiperidin]-4-yl)-1H-indole], the IC50 at human TLR8 amounted to 1410 nM; against human TLR7 it was 1700 nM; at human TLR9 it was 1780 nM.
Turning to `CCc1c(-c2ccnc(OC)c2)[nH]c2ccc(C3CCN(C4C[C@H]5CC[C@@H](C4)N5C)CC3)cc12` (stereo partly drawn) [Example 791, 3-ethyl-2-(2-methoxypyridin-4-yl)-5-(1-((1R,3s,5S)-8-methyl-8-azabicyclo[3.2.1]octan-3-yl)piperidin-4-yl)-1H-indole], the values for the IC50 at human TLR8, against human TLR7 and on human TLR9 were 158 nM, 666 nM and 1600 nM, respectively.
The matching figures for `CCc1c(-c2ccnc(OC)c2)[nH]c2ccc(C3CCN(C4CCN(CC)CC4)CC3)cc12` [Example 792, 3-ethyl-5-(1′-ethyl-[1,4′-bipiperidin]-4-yl)-2-(2-methoxypyridin-4-yl)-1H-indole]: 84.9 nM, 304 nM and 686 nM.
As to `CCc1c(-c2ccnc(OC)c2)[nH]c2ccc(C3CCN(C4CCCN(C5CCCC5)CC4)CC3)cc12` (stereo not drawn) [Example 793, 5-(1-(1-cyclopentylazepan-4-yl)piperidin-4-yl)-3-ethyl-2-(2-methoxypyridin-4-yl)-1H-indole], the IC50 on human TLR8 came to 29.6 nM; against human TLR7, 371 nM; on human TLR9, 252 nM.
In the same order, the values of `CCc1c(-c2ccnc(OC)c2)[nH]c2ccc(C3CCN([C@H]4CCCNCC4)CC3)cc12` [Example 794, (S)-5-(1-(azepan-4-yl)piperidin-4-yl)-3-ethyl-2-(2-methoxypyridin-4-yl)-1H-indole] are 40.9 nM, 674 nM and 1100 nM.
Turning to `COc1cc(-c2[nH]c3ccc(C4CCN(C5CCN(C)CC5)CC4)cc3c2C(C)C)ccn1` [Example 795, 3-isopropyl-2-(2-methoxypyridin-4-yl)-5-(1′-methyl-[1,4′-bipiperidin]-4-yl)-1H-indole], the IC50 on human TLR8 was determined as 12.5 nM; against human TLR7, 129 nM; at human TLR9, 851 nM.
On to `COc1cc(-c2[nH]c3ccc(C4CCN(C5CCN(CC6CC6)CC5)CC4)cc3c2C(C)C)ccn1` [Example 796, 5-(1′-(cyclopropylmethyl)-[1,4′-bipiperidin]-4-yl)-3-isopropyl-2-(2-methoxypyridin-4-yl)-1H-indole], for which the IC50 amounted to 13.9 nM at human TLR8, 154 nM on human TLR7 and 563 nM at human TLR9.
In the case of `COc1cc(-c2[nH]c3ccc(C4CCN(C5CCN(C(C)C)CC5)CC4)cc3c2C(C)C)ccn1` [Example 797, 3-isopropyl-5-(1′-isopropyl-[1,4′-bipiperidin]-4-yl)-2-(2-methoxypyridin-4-yl)-1H-indole], the IC50 amounted to 23.1 nM at human TLR8, 141 nM against human TLR7 and 596 nM on human TLR9.
Consider `CCc1c(-c2ccnc(OC)c2)[nH]c2ccc(C3CCN(C4C[C@H]5CCC[C@@H](C4)N5C)CC3)cc12` (stereo partly drawn) [Example 798, 3-ethyl-2-(2-methoxypyridin-4-yl)-5-(1-((1R,3r,5S)-9-methyl-9-azabicyclo[3.3.1]nonan-3-yl)piperidin-4-yl)-1H-indole], for which the IC50 on human TLR8 came out at 165 nM; at human TLR7, 624 nM; on human TLR9, 67 nM.
The matching figures for `COc1nccc(-c2[nH]c3ccc(C4CCN(C5CCN(CC(C)C)CC5)CC4)cc3c2C)c1OC` [Example 799, 2-(2,3-dimethoxypyridin-4-yl)-5-(1′-isobutyl-[1,4′-bipiperidin]-4-yl)-3-methyl-1H-indole]: 360 nM, 1670 nM and 180 nM.
In the case of `COc1cc(-c2[nH]c3ccc(C4CCN(C5CCNCC5)CC4)cc3c2C(C)C)ccn1` [Example 800, 5-([1,4′-bipiperidin]-4-yl)-3-isopropyl-2-(2-methoxypyridin-4-yl)-1H-indole], the IC50 at human TLR8 is 185 nM; on human TLR7 it was 167 nM; on human TLR9 it was 729 nM.
`CCN1CCC(N2CCC(c3ccc4[nH]c(-c5ccnc(OC)c5)c(C(C)C)c4c3)CC2)CC1` [Example 801, 5-(1′-ethyl-[1,4′-bipiperidin]-4-yl)-3-isopropyl-2-(2-methoxypyridin-4-yl)-1H-indole]: the IC50 was 218 nM on human TLR8, 561 nM against human TLR7 and 740 nM on human TLR9.
`COc1cc(-c2[nH]c3ccc(C4CCN(C5CCN(C6CCCC6)CC5)CC4)cc3c2C(C)C)ccn1` [Example 802, 5-(1′-cyclopentyl-[1,4′-bipiperidin]-4-yl)-3-isopropyl-2-(2-methoxypyridin-4-yl)-1H-indole]: the values for the IC50 at human TLR8, against human TLR7 and at human TLR9 were 99.3 nM, 389 nM and 487 nM, respectively.
The matching figures for `COc1cc(-c2[nH]c3ccc(C4CCN(C5CCN(CC(C)C)CC5)CC4)cc3c2C(C)C)ccn1` [Example 803, 5-(1′-isobutyl-[1,4′-bipiperidin]-4-yl)-3-isopropyl-2-(2-methoxypyridin-4-yl)-1H-indole]: 333 nM, 79.7 nM and 986 nM.
As for `CCc1c(-c2ccncc2)[nH]c2ccc(C3CCN(C4CCN(C(C)C)CC4)CC3)cc12` [Example 804, 3-ethyl-5-(1′-isopropyl-[1,4′-bipiperidin]-4-yl)-2-(pyridin-4-yl)-1H-indole], the IC50 on human TLR8 was found to be 11.2 nM; against human TLR7 it was 212 nM; on human TLR9 it was 82 nM.
As to `CCc1c(-c2ccncc2)[nH]c2ccc(C3CCN(C4CC(C)(C)NC(C)(C)C4)CC3)cc12` [Example 807, 3-ethyl-2-(pyridin-4-yl)-5-(2′,2′,6′,6′-tetramethyl-[1,4′-bipiperidin]-4-yl)-1H-indole], the IC50 amounted to 8.6 nM on human TLR8, 226 nM against human TLR7 and 117 nM at human TLR9.
